# System: 282377-053-R-J1-PDC complex spheroid viability
# Assay: Anticancer human tumor 282377-053-R-J1-PDC patient-derived colon adenocarcinoma cell line growth inhibition [RAS]
# Conditions: for IC50: curve of first compound; for viability, T/C: stronger effect = lower value
# Procedure, shortened: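 Multi-cell-type spheroids: tumor cells plus HUVEC endothelial cells and mesenchymal stem cells. RAS-pathway inhibitors were combined with targeted agents, each dosed in half-log steps down from clinical Cmax, or from 10 microM when Cmax was unknown.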
# 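Further: spheroids exposed to agents for seven days before readout.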
# 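Wherever viability, T/C is given: luminescence viability as percent of DMSO vehicle control wells.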
structure (smiles),measurement,setting,value
C=CC(=O)N1CCN(c2nc(OCC3CCCN3C)nc3c(F)c(-c4nc(N)cc(C)c4C(F)(F)F)c(Cl)cc23)C(C)C1 (centres undefined) + CCn1c(-c2cc(N3CCN(C)CC3)cnc2C(C)OC)c2c3cc(ccc31)-c1csc(n1)CC(NC(=O)C1CC1C)C(=O)N1CCCC(N1)C(=O)OCC(C)(C)C2,IC50,second compound 0.000949 µM,> 1000 nM
same,IC50,second compound 0.003 µM,> 1000 nM
same,IC50,second compound 0.00949 µM,> 1000 nM
same,IC50,second compound 0.03 µM,> 1000 nM
same,IC50,second compound 0.0949 µM,> 1000 nM
same,IC50,second compound 0.3 µM,> 1000 nM
same,"viability, T/C","second compound 0.000949 µM, first compound 0.00316 µM",110%
same,"viability, T/C","second compound 0.000949 µM, first compound 0.01 µM",101%
same,"viability, T/C","second compound 0.000949 µM, first compound 0.0316 µM",112%
same,"viability, T/C","second compound 0.000949 µM, first compound 0.1 µM",102%
same,"viability, T/C","second compound 0.000949 µM, first compound 0.316 µM",129%
same,"viability, T/C","second compound 0.000949 µM, first compound 1 µM",107%
same,"viability, T/C","second compound 0.003 µM, first compound 0.00316 µM",108%
same,"viability, T/C","second compound 0.003 µM, first compound 0.01 µM",120%
same,"viability, T/C","second compound 0.003 µM, first compound 0.0316 µM",98.4%
same,"viability, T/C","second compound 0.003 µM, first compound 0.1 µM",115%
same,"viability, T/C","second compound 0.003 µM, first compound 0.316 µM",73.2%
same,"viability, T/C","second compound 0.003 µM, first compound 1 µM",143%
same,"viability, T/C","second compound 0.00949 µM, first compound 0.00316 µM",134%
same,"viability, T/C","second compound 0.00949 µM, first compound 0.01 µM",97.6%
same,"viability, T/C","second compound 0.00949 µM, first compound 0.0316 µM",115%
same,"viability, T/C","second compound 0.00949 µM, first compound 0.1 µM",89.5%
same,"viability, T/C","second compound 0.00949 µM, first compound 0.316 µM",108%
same,"viability, T/C","second compound 0.00949 µM, first compound 1 µM",110%
same,"viability, T/C","second compound 0.03 µM, first compound 0.00316 µM",120%
same,"viability, T/C","second compound 0.03 µM, first compound 0.01 µM",85.6%
same,"viability, T/C","second compound 0.03 µM, first compound 0.0316 µM",88.1%
same,"viability, T/C","second compound 0.03 µM, first compound 0.1 µM",96.6%
same,"viability, T/C","second compound 0.03 µM, first compound 0.316 µM",93.6%
same,"viability, T/C","second compound 0.03 µM, first compound 1 µM",107%
same,"viability, T/C","second compound 0.0949 µM, first compound 0.00316 µM",124%
same,"viability, T/C","second compound 0.0949 µM, first compound 0.01 µM",113%
same,"viability, T/C","second compound 0.0949 µM, first compound 0.0316 µM",106%
same,"viability, T/C","second compound 0.0949 µM, first compound 0.1 µM",119%
same,"viability, T/C","second compound 0.0949 µM, first compound 0.316 µM",91.8%
same,"viability, T/C","second compound 0.0949 µM, first compound 1 µM",133%
same,"viability, T/C","second compound 0.3 µM, first compound 0.00316 µM",113%
same,"viability, T/C","second compound 0.3 µM, first compound 0.01 µM",93.7%
same,"viability, T/C","second compound 0.3 µM, first compound 0.0316 µM",134%
same,"viability, T/C","second compound 0.3 µM, first compound 0.1 µM",120%
same,"viability, T/C","second compound 0.3 µM, first compound 0.316 µM",104%
same,"viability, T/C","second compound 0.3 µM, first compound 1 µM",121%
CC1(C)CCC(Nc2ncc(C(F)(F)F)c(-c3c[nH]c4c(P(C)(C)=O)c(C#N)ccc34)n2)CN1 (centres undefined) + CCn1c(-c2cc(N3CCN(C)CC3)cnc2C(C)OC)c2c3cc(ccc31)-c1csc(n1)CC(NC(=O)C1CC1C)C(=O)N1CCCC(N1)C(=O)OCC(C)(C)C2,IC50,second compound 0.000949 µM,> 300 nM
same,IC50,second compound 0.003 µM,> 300 nM
same,IC50,second compound 0.00949 µM,> 300 nM
same,IC50,second compound 0.03 µM,> 300 nM
same,IC50,second compound 0.0949 µM,> 300 nM
same,IC50,second compound 0.3 µM,> 300 nM
same,"viability, T/C","second compound 0.000949 µM, first compound 0.000949 µM",104%
same,"viability, T/C","second compound 0.000949 µM, first compound 0.003 µM",123%
same,"viability, T/C","second compound 0.000949 µM, first compound 0.00949 µM",109%
same,"viability, T/C","second compound 0.000949 µM, first compound 0.03 µM",104%
same,"viability, T/C","second compound 0.000949 µM, first compound 0.0949 µM",97.8%
same,"viability, T/C","second compound 0.000949 µM, first compound 0.3 µM",94.8%
same,"viability, T/C","second compound 0.003 µM, first compound 0.000949 µM",98.2%
same,"viability, T/C","second compound 0.003 µM, first compound 0.003 µM",135%
same,"viability, T/C","second compound 0.003 µM, first compound 0.00949 µM",129%
same,"viability, T/C","second compound 0.003 µM, first compound 0.03 µM",99.6%
same,"viability, T/C","second compound 0.003 µM, first compound 0.0949 µM",90.2%
same,"viability, T/C","second compound 0.003 µM, first compound 0.3 µM",94.9%
same,"viability, T/C","second compound 0.00949 µM, first compound 0.000949 µM",116%
same,"viability, T/C","second compound 0.00949 µM, first compound 0.003 µM",96.5%
same,"viability, T/C","second compound 0.00949 µM, first compound 0.00949 µM",126%
same,"viability, T/C","second compound 0.00949 µM, first compound 0.03 µM",91.1%
same,"viability, T/C","second compound 0.00949 µM, first compound 0.0949 µM",92%
same,"viability, T/C","second compound 0.00949 µM, first compound 0.3 µM",96.3%
same,"viability, T/C","second compound 0.03 µM, first compound 0.000949 µM",109%
same,"viability, T/C","second compound 0.03 µM, first compound 0.003 µM",104%
same,"viability, T/C","second compound 0.03 µM, first compound 0.00949 µM",110%
same,"viability, T/C","second compound 0.03 µM, first compound 0.03 µM",101%
same,"viability, T/C","second compound 0.03 µM, first compound 0.0949 µM",96.9%
same,"viability, T/C","second compound 0.03 µM, first compound 0.3 µM",84.3%
same,"viability, T/C","second compound 0.0949 µM, first compound 0.000949 µM",107%
same,"viability, T/C","second compound 0.0949 µM, first compound 0.003 µM",118%
same,"viability, T/C","second compound 0.0949 µM, first compound 0.00949 µM",124%
same,"viability, T/C","second compound 0.0949 µM, first compound 0.03 µM",110%
same,"viability, T/C","second compound 0.0949 µM, first compound 0.0949 µM",119%
same,"viability, T/C","second compound 0.0949 µM, first compound 0.3 µM",76.7%
same,"viability, T/C","second compound 0.3 µM, first compound 0.000949 µM",136%
same,"viability, T/C","second compound 0.3 µM, first compound 0.003 µM",144%
same,"viability, T/C","second compound 0.3 µM, first compound 0.00949 µM",145%
same,"viability, T/C","second compound 0.3 µM, first compound 0.03 µM",113%
same,"viability, T/C","second compound 0.3 µM, first compound 0.0949 µM",108%
same,"viability, T/C","second compound 0.3 µM, first compound 0.3 µM",88.2%
